Source: US20240246937A1 (MERCK SHARP & DOHME LLC, priority 2021, published 2024)

Biological target: recombinant IL4I1 (Homo sapiens (Human), UniProt Q96RQ9)
Assay: IL4I1 Enzymatic Assay (Amplex Red/HRP coupled fluorescence detection of H2O2)
Type: biochemical
Settings: 240 min; recombinant IL4I1, four-hour pre-incubation with compound
Method in brief: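 Recombinant human IL4I1 (1 nM final) pre-incubated 4 h with compound at ambient temperature in 50 mM Hepes pH 7.0, 0.005% Tween20. Started with 1 mM each Phe/Tyr/Trp plus Amplex Red/HRP; H2O2-derived resorufin fluorescence read after 120 min; EC50 from ten-point 1:3 titration, four-parameter fit.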

recombinant IL4I1, sequence (Q96RQ9 22-567): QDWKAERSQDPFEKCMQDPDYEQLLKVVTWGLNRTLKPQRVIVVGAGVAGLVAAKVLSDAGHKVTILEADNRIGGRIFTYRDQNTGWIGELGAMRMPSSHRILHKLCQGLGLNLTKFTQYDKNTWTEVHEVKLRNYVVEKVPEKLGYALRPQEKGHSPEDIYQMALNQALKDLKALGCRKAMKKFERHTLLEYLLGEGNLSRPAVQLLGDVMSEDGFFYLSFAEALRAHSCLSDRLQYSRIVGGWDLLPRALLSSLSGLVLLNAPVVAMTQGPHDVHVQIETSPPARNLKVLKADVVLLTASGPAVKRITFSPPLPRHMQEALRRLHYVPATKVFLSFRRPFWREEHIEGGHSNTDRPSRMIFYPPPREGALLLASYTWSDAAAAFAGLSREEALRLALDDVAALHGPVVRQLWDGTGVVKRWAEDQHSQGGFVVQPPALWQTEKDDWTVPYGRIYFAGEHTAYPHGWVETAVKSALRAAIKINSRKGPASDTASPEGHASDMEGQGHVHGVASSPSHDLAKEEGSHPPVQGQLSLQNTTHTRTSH

SMILES	EC50 [nM]
N#CC1(n2ccn(Cc3cc(-c4ccccn4)no3)c(=O)c2=O)CC1 [Example 200, 1-(2,3-dioxo-4-((3-(pyridin-2-yl)isoxazol-5-yl)methyl)-3,4-dihydropyrazin-1(2H)-yl)cyclopropane-1-carbonitrile]	68
CC1(n2ccn(Cc3ccc(-n4nccn4)cn3)c(=O)c2=O)CC1 [Example 202, 1-((5-(2H-1,2,3-triazol-2-yl)pyridin-2-yl)methyl)-4-(1-methylcyclopropyl)-1,4-dihydropyrazine-2,3-dione]	44
O=c1c(=O)n(C23CC(F)(C2)C3)ccn1Cc1cc(-c2ccccn2)no1 [Example 203, 1-(3-fluorobicyclo[1.1.1]pentan-1-yl)-4-((3-(pyridin-2-yl)isoxazol-5-yl)methyl)-1,4-dihydropyrazine-2,3-dione]	19
O=c1c(=O)n(C23CC(F)(C2)C3)ccn1Cc1ccc(-c2nccs2)nn1 [Example 205, 1-(3-fluorobicyclo[1.1.1]pentan-1-yl)-4-((6-(thiazol-2-yl)pyridazin-3-yl)methyl)-1,4-dihydropyrazine-2,3-dione]	24
N#CC1(n2ccn(Cc3cc(-c4ccccn4)on3)c(=O)c2=O)CC1 [Example 207, 1-(2,3-dioxo-4-((5-(pyridin-2-yl)isoxazol-3-yl)methyl)-3,4-dihydropyrazin-1(2H)-yl)cyclopropane-1-carbonitrile]	43
O=c1c(=O)n(C23CC(F)(C2)C3)ccn1Cc1cc(-c2ccccn2)on1 [Example 208, 1-(3-fluorobicyclo[1.1.1]pentan-1-yl)-4-((5-(pyridin-2-yl)isoxazol-3-yl)methyl)-1,4-dihydropyrazine-2,3-dione]	21
CC1(n2ccn(Cc3cc(-c4cccnc4)on3)c(=O)c2=O)CC1 [Example 209, 1-(1-methylcyclopropyl)-4-((5-(pyridin-3-yl)isoxazol-3-yl)methyl)-1,4-dihydropyrazine-2,3-dione]	26
N#CC1(n2ccn(Cc3cc(-c4cccnc4)on3)c(=O)c2=O)CC1 [Example 210, 1-(2,3-dioxo-4-((5-(pyridin-3-yl)isoxazol-3-yl)methyl)-3,4-dihydropyrazin-1(2H)-yl)cyclopropane-1-carbonitrile]	92
O=c1c(=O)n(C23CC(C2)C3)ccn1Cc1cc(-c2cccnc2)on1 [Example 212, 1-(bicyclo[1.1.1]pentan-1-yl)-4-((5-(pyridin-3-yl)isoxazol-3-yl)methyl)-1,4-dihydropyrazine-2,3-dione]	10
O=c1c(=O)n(C23CC(F)(C2)C3)ccn1Cc1ccc(-c2cncs2)nn1 [Example 213, 1-(3-fluorobicyclo[1.1.1]pentan-1-yl)-4-((6-(thiazol-5-yl)pyridazin-3-yl)methyl)-1,4-dihydropyrazine-2,3-dione]	29
O=c1c(=O)n(C23CC(F)(C2)C3)ccn1Cc1ccc(-c2cccnc2)nn1 [Example 215, 1-(3-fluorobicyclo[1.1.1]pentan-1-yl)-4-((6-(pyridin-3-yl)pyridazin-3-yl)methyl)-1,4-dihydropyrazine-2,3-dione]	57
O=c1c(=O)n(C2(CF)CC2)ccn1Cc1ccc(-n2nccn2)cn1 [Example 216, 1-((5-(2H-1,2,3-triazol-2-yl)pyridin-2-yl)methyl)-4-(1-(fluoromethyl)cyclopropyl)-1,4-dihydropyrazine-2,3-dione]	60
O=c1c(=O)n(C23CC(F)(C2)C3)ccn1Cc1ccc(-n2nccn2)cn1 [Example 217, 1-((5-(2H-1,2,3-triazol-2-yl)pyridin-2-yl)methyl)-4-(3-fluorobicyclo[1.1.1]pentan-1-yl)-1,4-dihydropyrazine-2,3-dione]	42
O=c1c(=O)n(C2(CF)CC2)ccn1Cc1ccc(-n2cccn2)cn1 [Example 218, 1-((5-(1H-pyrazol-1-yl)pyridin-2-yl)methyl)-4-(1-(fluoromethyl)cyclopropyl)-1,4-dihydropyrazine-2,3-dione]	56
O=c1c(=O)n(C23CC(F)(C2)C3)ccn1Cc1ccc(-n2cccn2)cn1 [Example 219, 1-((5-(1H-pyrazol-1-yl)pyridin-2-yl)methyl)-4-(3-fluorobicyclo[1.1.1]pentan-1-yl)-1,4-dihydropyrazine-2,3-dione]	59
CC1(n2ccn(Cc3cc(-c4cccnc4)no3)c(=O)c2=O)CC1 [Example 221, 1-(1-methylcyclopropyl)-4-((3-(pyridin-3-yl)isoxazol-5-yl)methyl)-1,4-dihydropyrazine-2,3-dione]	14
O=c1c(=O)n(C23CC(F)(C2)C3)ccn1Cc1cc(-c2cccnc2)no1 [Example 224, 1-(3-fluorobicyclo[1.1.1]pentan-1-yl)-4-((3-(pyridin-3-yl)isoxazol-5-yl)methyl)-1,4-dihydropyrazine-2,3-dione]	101
O=c1c(=O)n(C2(CF)CC2)ccn1Cc1cc(-c2ccccn2)no1 [Example 225, 1-(1-(fluoromethyl)cyclopropyl)-4-((3-(pyridin-2-yl)isoxazol-5-yl)methyl)-1,4-dihydropyrazine-2,3-dione]	41
O=c1c(=O)n(C23CC(F)(C2)C3)ccn1Cc1ccc(-n2ccnn2)nc1 [Example 230, 1-((6-(1H-1,2,3-triazol-1-yl)pyridin-3-yl)methyl)-4-(3-fluorobicyclo[1.1.1]pentan-1-yl)-1,4-dihydropyrazine-2,3-dione]	91
O=c1c(=O)n(C2(CF)CC2)ccn1Cc1ccc(-c2nccs2)nn1 [Example 233, 1-(1-(fluoromethyl)cyclopropyl)-4-((6-(thiazol-2-yl)pyridazin-3-yl)methyl)-1,4-dihydropyrazine-2,3-dione]	54
O=C1C(=O)N(C23CC(F)(C2)C3)CCN1Cc1ccc(-c2nccs2)nn1 [Example 234, 1-(3-fluorobicyclo[1.1.1]pentan-1-yl)-4-((6-(thiazol-2-yl)pyridazin-3-yl)methyl)piperazine-2,3-dione]	40

Second part, the compound after the results:

EC50 [nM]	SMILES
30	O=c1c(=O)n(C23CC(F)(C2)C3)ccn1Cc1ccc(-c2ccccc2F)nn1 [Example 201, 1-(3-fluorobicyclo[1.1.1]pentan-1-yl)-4-((6-(2-fluorophenyl)pyridazin-3-yl)methyl)-1,4-dihydropyrazine-2,3-dione]
78	N#CC1(n2ccn(Cc3ccc(-c4nccs4)nn3)c(=O)c2=O)CC1 [Example 204, 1-(2,3-dioxo-4-((6-(thiazol-2-yl)pyridazin-3-yl)methyl)-3,4-dihydropyrazin-1(2H)-yl)cyclopropane-1-carbonitrile]
28	CC1(n2ccn(Cc3cc(-c4ccccn4)on3)c(=O)c2=O)CC1 [Example 206, 1-(1-methylcyclopropyl)-4-((5-(pyridin-2-yl)isoxazol-3-yl)methyl)-1,4-dihydropyrazine-2,3-dione]
61	O=c1c(=O)n(C23CC(F)(C2)C3)ccn1Cc1cc(-c2cccnc2)on1 [Example 211, 1-(3-fluorobicyclo[1.1.1]pentan-1-yl)-4-((5-(pyridin-3-yl)isoxazol-3-yl)methyl)-1,4-dihydropyrazine-2,3-dione]
56	O=c1c(=O)n(C23CC(F)(C2)C3)ccn1Cc1ccc(-c2ccccn2)nn1 [Example 214, 1-(3-fluorobicyclo[1.1.1]pentan-1-yl)-4-((6-(pyridin-2-yl)pyridazin-3-yl)methyl)-1,4-dihydropyrazine-2,3-dione]
50	O=c1c(=O)n(C23CC(F)(C2)C3)ccn1Cc1ccc(-n2cccn2)nc1 [Example 220, 1-((6-(1H-pyrazol-1-yl)pyridin-3-yl)methyl)-4-(3-fluorobicyclo[1.1.1]pentan-1-yl)-1,4-dihydropyrazine-2,3-dione]
316	N#CC1(n2ccn(Cc3cc(-c4cccnc4)no3)c(=O)c2=O)CC1 [Example 222, 1-(2,3-dioxo-4-((3-(pyridin-3-yl)isoxazol-5-yl)methyl)-3,4-dihydropyrazin-1(2H)-yl)cyclopropane-1-carbonitrile]
10	O=c1c(=O)n(C23CC(C2)C3)ccn1Cc1cc(-c2cccnc2)no1 [Example 223, 1-(bicyclo[1.1.1]pentan-1-yl)-4-((3-(pyridin-3-yl)isoxazol-5-yl)methyl)-1,4-dihydropyrazine-2,3-dione]
78	O=C1C(=O)N(C23CC(F)(C2)C3)CCN1Cc1ccc(-c2ccccn2)nn1 [Example 226]
69	O=c1c(=O)n(C2(CF)CC2)ccn1Cc1ccc(-c2cccnc2)nn1 [Example 227, 1-(1-(fluoromethyl)cyclopropyl)-4-((6-(pyridin-3-yl)pyridazin-3-yl)methyl)-1,4-dihydropyrazine-2,3-dione]
23	O=C1C(=O)N(C23CC(F)(C2)C3)CCN1Cc1ccc(-c2ccccc2F)nn1 [Example 228, 1-(3-fluorobicyclo[1.1.1]pentan-1-yl)-4-((6-(2-fluorophenyl)pyridazin-3-yl)methyl)piperazine-2,3-dione]
54	O=c1c(=O)n(C23CC(F)(C2)C3)ccn1Cc1ccc(-c2ccccn2)cn1 [Example 229, 1-([2,3′-bipyridin]-6′-ylmethyl)-4-(3-fluorobicyclo[1.1.1]pentan-1-yl)-1,4-dihydropyrazine-2,3-dione]
22	O=c1c(=O)n(C2(CF)CC2)ccn1Cc1ccc(-n2cccn2)nc1 [Example 231, 1-((6-(1H-pyrazol-1-yl)pyridin-3-yl)methyl)-4-(1-(fluoromethyl)cyclopropyl)-1,4-dihydropyrazine-2,3-dione]
82	O=C1C(=O)N(C23CC(F)(C2)C3)CCN1Cc1cc(-c2ccccn2)no1 [Example 232, 1-(3-fluorobicyclo[1.1.1]pentan-1-yl)-4-((3-(pyridin-2-yl)isoxazol-5-yl)methyl)piperazine-2,3-dione]
18	O=c1c(=O)n(C2(CF)CC2)ccn1Cc1ccc(-n2ccnn2)nc1 [Example 235, 1-((6-(1H-1,2,3-triazol-1-yl)pyridin-3-yl)methyl)-4-(1-(fluoromethyl)cyclopropyl)-1,4-dihydropyrazine-2,3-dione]
